Test results: patent publication US20220409681A1, “LACTOBACILLUS SALIVARIUS LS97 AND APPLICATION THEREOF” (WECARE PROBIOTICS CO., LTD., priority 2019, published 2022)

Legend:
Streptococcus sobrinus = test: Rat dental caries model: oral S. sobrinus count and Keyes caries score; assay type: in vivo, Wistar rats
Experimental: (§1) SPF female Wistar rats (about 3 weeks old) were obtained and housed in a barrier environment with constant temperature and humidity, with 12 h of light and 12 h of darkness. All rats were acclimated to the environment and diet in a week before experiment, and then were randomly divided into groups according to body weight. The rats were randomly divided into 4 groups according to body weight with 10 rats in each group, among which one group was set as the blank control group (blank group), one group was set as the dental caries model group (dental caries group), and two groups were set as the intervention group. The intervention groups were wiped S. sobrinus continuously for 7 days, and after confirming that S. sobrinus was successfully colonized in the rat's oral cavity, the corresponding experimental groups were wiped chlorhexidine (chlorhexidine group) and LS97 (LS97 group) continuously for 7 days respectively, and then 3 times a week. Chlorhexidine, an ionic drug with good antibacterial effect, was used as a positive control group. The cariogenic bacteria S. sobrinus and LS97 were both cultured overnight for 12 h. After adjusted to a bacterial concentration of 1×10^8 CFU/mL, 0.2 mL of bacterial suspension was wiped onto the rat molars by sterile cotton swab, and namely, the cotton swab that absorbed bacterial suspension sufficiently worked on each quarter of the rat's oral teeth for the same 15 s. During the experiment, except for the blank control group fed normal feed and drinking water, other groups were all fed cariogenic feed Diet 2000# and drinking water added with 5% sucrose, in which the main components of cariogenic feed are shown in Table 4. The experimental period was maintained for 10 weeks.
At the 3rd, 7th, and 10th weeks of the experiment (corresponding to the early, middle and late stages of the experiment, respectively), the first, second and third samplings were performed on the oral teeth of rats, and samples were spread on MRS solid medium added with vancomycin of 12 μg/mL for Streptococcus sobrinus count.
After the rat experiment was finished, the rats were killed and the rat molars were taken out. The molars were placed in a 0.4% murexide dye liquor and soaked for 12 h overnight for dyeing. After the molars were rinsed by clean water and dried naturally, the caries lesion condition of rat molars in each group was observed under a stereo microscope. Caries scoring was performed on the rat teeth by using the Keyes caries scoring method. According to Keyes' classic method for evaluating dental caries, the lesion degree of dental caries is divided into four grades: E-grade caries, caries lesion involving enamel only; Ds-grade caries, enamel caries lesion and caries lesion involving the outer dentin less than ¼; Dm-grade caries, caries lesion involving the dentin thickness within ¼ to ¾; Dx-grade caries, caries lesion involving the dentin thickness more than ¾, and the result is shown in FIG. 4.

[1] = Rat dental caries model: body weight; assay type: in vivo, Wistar rats
Experimental: as §1

[2] = Keyes caries scoring, FIG. 4, versus dental caries model group

[H]/N=C(\N/C(=N/[H])NCCCCCCNC(=N)NC(=N)Nc1ccc(Cl)cc1)Nc1ccc(Cl)cc1 [Chlorhexidine]
Effect on Dm caries (in words) (Streptococcus sobrinus; [2]): not obvious | Effect on E caries and Ds caries (in words) (Streptococcus sobrinus; [2]): effectively reduced | Change of the number of Streptococcus sobrinus in the oral cavity (in words) (Streptococcus sobrinus; after intervention, chlorhexidine statement refers to the third test): showed an increment circumstance | Count of Streptococcus sobrinus in oral sampling (Streptococcus sobrinus; sampling number 1, 3rd week): 5.53 ± 0.23 Log value | Count of Streptococcus sobrinus in oral sampling (Streptococcus sobrinus; sampling number 2, 7th week): 4.00 ± 0.19 Log value | Count of Streptococcus sobrinus in oral sampling (Streptococcus sobrinus; sampling number 3, 10th week): 4.31 ± 0.13 Log value | Body weight of rats after the experiment ([1]; 10 weeks): 212.49 ± 23.86 g | Rat body weight increment ([1]; 10 weeks): 147.83 ± 19.73 g | Body weight of rats before the experiment ([1]; baseline): 60.32 ± 5.28 g
